62 molecules from a melting point compilation (Tetko et al.; mined from patent text by program, amines drawn as free bases though some values may be those of a salt) can be followed below.

Some results are limits rather than exact numbers.

One may read the melting point as the temperature, or range, at which the solid turns liquid.

`COc1cc2c(cc1OC)-c1c(C#N)sc(=NC(=O)c3ccccc3)n1CC2` displayed a melting point of 274 to 276 °C. Regarding `C=CCN(C(=O)OC(C)(C)C)c1cc(OC)c(-c2ccc(C[C@H](NC(=O)c3c(Cl)cccc3Cl)C(=O)O)cc2)c(OC)c1`, the melting point was in the range of 138 to 139 °C.

The molecule `CC(=O)Nc1cc(Oc2ccc3c(C(=O)Nc4ccc(CN5CCNCC5)c(C(F)(F)F)c4)cccc3c2)ncn1` displayed a melting point of 194 to 197 °C.

`CC(=O)Nc1ccc(-c2ccc3c(c2)CC(C(=O)O)O3)cc1` (configuration not stated): the melting point was 274 to 276 °C.

`NC(=O)c1ccc(F)c2c1CC(N(CCCCc1c[nH]c3ccc(F)cc13)C1CCC1)CO2` (configuration not stated): the melting point was found to be 122 °C. As for `Cc1c(-c2ccc(C[C@H](NC(=O)c3c(Cl)cccc3Cl)C(=O)O)cc2)c(=O)n(C)c(=O)n1C`, the melting point was 225 to 227 °C. The same measure for `Cc1cnn(-c2nc3ccccc3c(=O)[nH]2)c1`: 169 to 171 °C. For `Cc1cc(NS(=O)(=O)c2cccc(S(=O)(=O)Nc3cc(C)c(S(=O)(=O)C[N+](=O)[O-])c(C)c3)c2)cc(C)c1S(=O)(=O)C[N+](=O)[O-]` the value was 191 to 192 °C.

`OC(=S)CCc1cccc(Br)c1` returned a melting point of 90 to 91 °C.

`C#CCON=Cc1c(C(=O)OC)[nH]c2c(C)ccc(C)c12` displayed a melting point of 113 to 114 °C. For `Cc1nnc2n1-c1ccc(N)cc1C(c1ccccc1Cl)=CC2` the value was 271 to 273 °C; for `CC(=O)Oc1ccc2ncnc(Nc3ccc(OCc4ccccn4)c(C)c3)c2c1`, 149 to 151 °C; for `CCOC(=O)c1cccc(-n2cc(-c3ccccc3)c3c(N)ncnc32)c1`, 176 to 177 °C. `CCc1nc2c(N)nc3ccccc3c2n1CC1(O)CCSCC1`: the melting point was over 250 °C. For `CC1=C(C(=O)OCCN(Cc2ccccc2)Cc2ccccc2)C(c2ccccc2C(F)(F)F)c2c(ccnc2OC(C)C)N1` (configuration not stated) the value was 132 to 133 °C; for `O=C(O)Cc1cc([N+](=O)[O-])ccc1Sc1cccc(Br)c1`, 123 to 125 °C; for `CC#CCOc1cc2ncc(C#N)c(Nc3cc(OC)c(Cl)cc3Cl)c2cc1OC`, 193 to 197 °C.

For the molecule `CCCCc1oc2ccccc2c1C(=O)c1ccc(O)cc1`, the melting point was 119 °C.

Turning to `OC1CCc2cc3ccccc3n2C1` (configuration not stated), the melting point was in the range of 99 to 100 °C.

`CCOC(=O)c1cn(Cc2ccc(Oc3ccccc3)cc2)nc1O` yielded a melting point of 117 to 118 °C. For `CCc1cn(C2OC(CNC(=O)C(C)Oc3cc(OC)c(Cl)cc3Cl)C(O)C2F)c(=O)[nH]c1=O` (configuration not stated) the value was 151 to 156 °C; for `CCCCS(=O)(=O)Nc1ccccc1OCc1ccc2ccccc2n1`, 93 to 94 °C; for `CCS(=O)(=O)c1cn(C)c2ccccc2c1=O`, 164 to 166 °C. The same measure for `CCCc1ccnc2c(=O)[nH]c(-c3cc(S(=O)(=O)N4CCN(C)CC4)ccc3OCC)nc12`: 211 to 212 °C; for `CCOC(=O)c1ccc(C(F)(F)F)c(OC2CCOC2)n1` (configuration not stated): 45 to 45.5 °C; for `CC(O)Cn1cc(C2=C(c3cn(CC(C)O)c4ccccc34)C(=O)NC2=O)c2ccccc21` (configuration not stated): 133 to 135 °C. `CC(C)c1nn(-c2ccc(C(F)(F)F)cn2)cc1CCCOc1cc(CCC(=O)O)n(-c2ccccc2)n1` yielded a melting point of 139 to 140 °C. The same measure for `Cc1oc(-c2ccccc2)nc1COc1ccc2cc(CC3SC(=O)NC3=O)oc2c1` (configuration not stated): 179 to 180 °C. For `CC(C)C(=O)O[C@H]1[C@H](C)OC(=O)[C@@H](NC(=O)OC(C)(C)C)COC(=O)[C@@H]1CSc1ccccn1` the value was 54 to 58 °C. The same measure for `O=C1OCC2C3OC(C4CCCCC43)C12` (configuration not stated): 90 to 91 °C; for `CC(=O)NC[C@H]1CN(c2ccc(N3CC(C)(O)C3)c(F)c2)C(=O)O1`: 152 to 153 °C. As for `C#CCC(Cc1cccnc1)(C(=O)O)S(=O)(=O)c1ccc(OC)cc1` (configuration not stated), the melting point is 119 to 121 °C. `COC(=S)CCc1cc(Oc2ccc(C(F)(F)F)cc2Cl)ccc1[N+](=O)[O-]` displayed a melting point of 61 to 63 °C.

For the molecule `CC(CCNC(=O)c1ccc(OC(F)(F)F)cc1)CC(C)(C)CNC(=O)c1ccc(OC(F)(F)F)cc1` (configuration not stated), the melting point lay within 97 to 99 °C. For `CCOc1cc(C(CC(=O)CC)N2C(=O)c3cccc(NC(C)=O)c3C2=O)ccc1OC` (configuration not stated) the value was 137 to 139 °C; for `COc1ccc(C(O)c2cc(O)ccc2OC)cc1` (configuration not stated), 62 to 68 °C; for `CCCc1nn(C)c2c(-c3ccc(SC)cc3)nc(-c3ccc(F)cc3)nc12`, 114 to 116 °C. The same measure for `CC1CC(=O)NN=C1c1ccc(NCCN)c(N)c1` (configuration not stated): 176 to 177 °C; for `COc1ccc(C(=O)Nc2ccc3ccc(Oc4cccc(Cl)c4)nc3n2)cc1`: 182 °C; for `Cc1ccccc1C(=O)c1cc2c(cc1O)CCC2`: 61 to 62 °C.

`CCc1ccc2c(-c3ccccc3)onc2c1` gave a melting point of 41 to 43 °C. The same measure for `O=C1C=C(c2cccc(Cl)c2)CN(Cc2ccccc2)C1`: 143 to 145 °C; for `CC1CCc2[nH]c3ccc(Br)cc3c2C1` (configuration not stated): 108 to 110 °C. The same measure for `CCc1ccnc(C(=O)c2[nH]c3ccc(Cl)cc3c2CC(=O)O)c1`: 217 to 218 °C; for `CC=C1c2ccccc2CC(NO)c2ccccc21` (configuration not stated): 121 to 124 °C; for `CCCCCCCCC1C=CC(Cc2ccc(C(=O)O)o2)=C2N=C3CCCCC3=C21` (configuration not stated): 152 to 155 °C. For `CC1CCN(c2cc3nc(C(C)(C)C)sc3cc2N)CC1` the value was 146 to 148 °C; for `O=C1NCCc2c(O)cccc21`, 195 to 198 °C. In turn, `COc1cc(Cl)ccc1C(=O)Nc1ccc(C(=O)N2Cc3ccccc3Cc3ccccc32)cc1` came in with a melting point of 237 to 239 °C. For `CNS(=O)(=O)c1nc2ccc(O)cc2s1` the value was 189 to 190 °C; for `COc1ccc(Nc2nc(N3CCOCC3)nc(-n3c(C(F)F)nc4c(OC)cccc43)n2)cn1`, 201 to 202 °C.

As for `CC(C)(C)c1cc(C[C@@H]2SCNC2=O)cc(C(C)(C)C)c1O`, the melting point fell in the range of 149 to 150 °C.

Take `Cc1nc(SCc2ccc(Cl)cc2)nc2c1CCCC2`: the melting point came out at 48 °C. Take `CCOc1cc2c(Cl)ccnc2nc1C`: the melting point came to 164 °C. For `Cc1nc(NC(=O)c2cnn3c(C(F)(F)F)cc(-c4ccc(C(F)(F)F)c(OCC(F)(F)F)c4)nc23)sc1S(=O)(=O)NC(C)(C)CO` the value was 275 °C; for `C=CCOC(=O)c1cnc2c(cnn2CCC(C)C)c1N`, 124 to 126 °C.

Take `Clc1ccc2nc3c(nc2c1)N1CCCCC1CO3` (configuration not stated): the melting point lay in the range of 147 to 149 °C. For `COC(=O)c1ncn2c1[C@@H]1CCCN1C(=O)c1ccccc1-2` the value was 165 to 167 °C.

Turning to `CCCCn1c2ccc(C)cc2c(=O)c2c1cnn2C`, the melting point is 262 °C. The same measure for `Cc1cc(Oc2ccc(C(F)(F)F)cc2Cl)cc(C)c1NC(=O)C1C(=O)N(C)C(=S)N(C)C1=O`: 171 to 173 °C; for `CC=CC(=O)Nc1cccc(OC(=O)Nc2ccc(Cl)c(Cl)c2)c1`: 193 to 194 °C. The same measure for `OCCOc1ccc(O)c(Cl)c1`: 76 to 82 °C.
